In one data set the test system is SHSY-5Y cells. Briefly: MTS cell viability assay. The format is cell-based. The method, then: SHSY-5Y cells (kindly provided by I. Szabò) were grown in Dulbecco’s Modified Eagle Medium (DMEM, Aurogene) supplemented with 10% (v/v) fetal bovine serum (FBS), 100 U/mL penicillin G, 0.1 mg/mL streptomycin and 5% glutamine.
SHSY-5Y cells were seeded (10,000 cells/well) in standard 96-well plates in DMEM (200 µL). After 24 h, the growth medium was replaced with a medium containing PAPTP and PAPTPL (from a stock solution in DMSO) at the desired final concentrations (20, 10 and 3 μM). DMEM without additions (CONTROL in Figure 2) was used as negative control. The final concentration of DMSO was 0.1% or lower in all cases (including control). After incubation for 24 h, 20 µL of CellTiter 96 AQUEOUS One solution (Promega, Italy) were added to each well and the plate was incubated at 37 °C in a humidified, 5% CO2 atmosphere for 4 h. Absorbance was measured at 490 nm to detect formazan formation.
(Formazan colour is commonly taken as a measure of viable cells.)

Data set [1] can be described thus: Tissue distribution of An2-PAPTP and metabolites (liver, spleen, kidneys, heart) after i.v. injection. The format is in vivo, mouse. The conditions noted are these: mean ± SEM; for metabolite in liver, 15 min: n = 5; for metabolite in heart, 15 min / metabolite in kidneys, 15 min / metabolite in spleen, 15 min: N = 5. The text has this: The total amount of An2-PAPTP and its metabolites, summarized in Table 3, is comprehensive of all the species having the characteristic psoralenic UV spectrum obtained by the overall extraction procedure (i.e., from organic solvent extraction and basic hydrolysis of the remaining pellet), and represents and underestimation of the real concentration in the tissue (see Section 4.7.3). This is because no recovery yield correction was applied, since it was impossible to identify most of the species extracted, and because PAPTPL extracted after high-pH hydrolysis of the pellet could come either from An2-PAPTP or from metabolites. For quantification in HPLC analysis, all the psoralenic species were assumed to have the same molar extinction coefficient as PAPTPL, an assumption justified by the near-identity observed for all the available psoralen-containing molecules.
The liver, spleen, kidneys, heart obtained from untreated mice were weighed and homogenized with PBS pH 7.4 (1 vol) with a potter. The pre-established amount of PAPTPL was added into tissue homogenates or blood and, after thorough vortexing, 5 vol of acetone were added and the sample was sonicated for 2 min. Subsequently, 5 vol of ACN containing 0.1% TFA were added and the sample was sonicated for 5 min. The sample was then centrifuged at 12,000× g for 7 min at 4 °C and the supernatant was collected, concentrated with a Hetovac VR-1, and analyzed via HPLC-UV.
Brain and liver obtained from untreated mice were weighed and homogenized with PBS pH 7.4 (1 vol) with a potter. The pre-established amount of analyte was added into tissue homogenates and, after thorough vortexing, 5 vol of acetone were added and the sample was sonicated for 2 min. Subsequently, 5 vol of ACN containing 0.1% trifluoracetic acid (TFA) were added and the sample was sonicated for 5 min. The sample was then centrifuged at 12,000× g for 7 min at 4 °C and the supernatant was collected, concentrated with a Hetovac VR-1, and analyzed via HPLC-UV.
To quantify the amount of An2-PAPTP stuck in the tissue, the pellet remaining after the procedure described above was incubated with intermittent Vortexing at 60 °C for 3 h with PBS pH 12.5/ACN 1:1 and then centrifuged at 12,000× g for 7 min. HPLC-UV analysis of the supernatant, measuring PAPTPL hydrolyzed from the tissue, thus indirectly reflects the amount of An2-PAPTPL in the pellet (Scheme 3). Quantification was as described for PAPTPL.
A stock solution of the peptide-PAPTP conjugates was prepared in DMSO. TAT-PAPTP was administered at 8 and 5 μmol/kg bw and An2-PAPTP only at 5 μmol/kg bw. The calculated quantity of drugs was diluted from the stock solution in saline or mouse plasma to a final volume of 200 μL.

Data set [2] in a line: Preliminary brain levels after intraperitoneal An2-PAPTP. To be noted: An2-PAPTP 5 µmol/kg bw i.p. in DMSO; sacrifice at 20 min or 1, 2, 4 h; four mice. The format is in vivo, mouse. The procedure:
In preliminary tests An2-PAPTP was administered at 5 µmol/kg bw by the intraperitoneal (i.p.) route, using dimethylsulfoxide (DMSO) as the vehicle. […] Many brain-penetrating peptides bind to biomolecules such as proteins and cell structures such as membranes. Furthermore, the absence of a flowing bloodstream at the injection site may cause a poorly soluble molecule to remain confined in the vicinity of the point of delivery. […] Collectively, these preliminary results led to the adoption of the intravenous route. An2-PAPTP (5 µmoles/kg bw, in plasma) was thus administered by tail vein injection to mice.

On the set-up of data set [3]: method as in 4 sources, ref 50, 59 = [50]; PMID 12697897; doi:10.1073/pnas.0931245100; 50. Smith R.A.J. Porteous C.M. Gane A.M. Murphy M.P. Delivery of bioactive molecules to mitochondria in vivo Proc. Natl. Acad. Sci. USA 2003 100 5407 5412 10.1073/pnas.0931245100 12697897 PMC154358 || [59]; PMID 23454352; doi:10.1016/j.bbagen.2013.02.005; 59. Porteous C.M. Menon D.K. Aigbirhio F.I. Smith R.A. Murphy M.P. P-glycoprotein (Mdr1a/1b) and breast cancer resistance protein (Bcrp) decrease the uptake of hydrophobic alkyl triphenylphosphonium c ||| ref 59 = [59]; PMID 23454352; doi:10.1016/j.bbagen.2013.02.005; 59. Porteous C.M. Menon D.K. Aigbirhio F.I. Smith R.A. Murphy M.P. P-glycoprotein (Mdr1a/1b) and breast cancer resistance protein (Bcrp) decrease the uptake of hydrophobic alkyl triphenylphosphonium c ||| ref 50 = [50]; PMID 12697897; doi:10.1073/pnas.0931245100; 50. Smith R.A.J. Porteous C.M. Gane A.M. Murphy M.P. Delivery of bioactive molecules to mitochondria in vivo Proc. Natl. Acad. Sci. USA 2003 100 5407 5412 10.1073/pnas.0931245100 12697897 PMC154358 ||| ref 60 = [60]; PMID 31751762; doi:10.1016/j.freeradbiomed.2019.11.021; 60. Pinho B.R. Duarte A.I. Canas P.M. Moreira P.I. Murphy M.P. Oliveira J.M.A. The interplay between redox signalling and proteostasis in neurodegeneration: In vivo effects of a mitochondria-targeted. The conditions noted are these: cited from earlier work. The text has this:
TPP-driven mitochondriotropic compounds are not necessarily excluded from the brain [47, 48, 49, 50]. The literature contains several reports of the use of mitochondria-targeted probes to report on cerebral processes or of mitochondria-tar ...

A short description of data set [4]: fresh mouse blood, withdrawn from the jugular vein and heparinized. To be noted: C57BL mice, 37 °C, up to 4 h.
The mark [5] stands for this setting: after An2-PAPTP 5 µmoles/kg bw i.v.

`O=C([O-])C(F)(F)F.O=c1ccc2c(OCCCCOc3ccc(CCC[P+](c4ccccc4)(c4ccccc4)c4ccc(OCCCc5ccc(O)cc5)cc4)cc3)c3ccoc3cc2o1` [PAPTPL, (4-(3-(4-hydroxyphenyl)propoxy)phenyl)(3-(4-(4-((7-oxo-7H-furo[3,2-g]chromen-4-yl)oxy)butoxy)phenyl)propyl)diphenylphosphonium 2,2,2-trifluoroacetate]: the “difference in cytotoxic effect versus PAPTP” value in the data set on SHSY-5Y cells (24 h, MTS, one-way ANOVA) was “no statistically significant difference”. In the data set with SHSY-5Y cells (24 h treatment, 20, 10 and 3 μM, absorbance 490 nm, n = 3), the “cytotoxic effect (cell viability, MTS reduction assay)” value is recorded as “marked cytotoxicity”. Further, the “metabolite in liver, 15 min” value in data set [1] (after An2-PAPTP 5 µmoles/kg bw i.v. in mouse plasma, HPLC-UV) is 1.5 ± 0.6 nmol/g fresh tissue. In addition, in data set [1] (setting [5]), the “metabolite in heart, 15 min” value stood at 0.12 ± 0.06 nmol/g fresh tissue; the “metabolite in kidneys, 15 min” value turned out to be 0.7 ± 0.1 nmol/g fresh tissue; the “metabolite in liver, 15 min” value amounted to 1.2 ± 0.5 % administered dose; the “metabolite in spleen, 15 min” value was 0.9 ± 0.2 nmol/g fresh tissue. For the same molecule, in data set [1] (after An2-PAPTP i.v.), the “metabolite in heart, 15 min” value came out at 0.013 ± 0.007 % administered dose; the “metabolite in kidneys, 15 min” value was 0.1 ± 0.1 % administered dose; the “metabolite in spleen, 15 min” value is listed as 0.05 ± 0.02 % administered dose. Besides, in data set [2], the “detection in brain after i.p. administration” value is “no An2-PAPTP or PAPTPL could be detected”.
For the molecule `COC1=C(OC)C(=O)C(CCCCCCCCCC[P+](c2ccccc2)(c2ccccc2)c2ccccc2)=C(C)C1=O` [MitoQ], the “amount in the brain, R6/2 mice” value in data set [3] (500 µM MitoQ in drinking water for 6 weeks, R6/2 mice) was approximately 5 pmol/g. Also, the “amount in the brain, WT mice” value in data set [3] (500 µM MitoQ in drinking water for 6 weeks, WT mice) is recorded as “about 1 pmol/g”. For the same molecule, the “steady-state brain radioactivity levels” value in data set [3] (10-day administration of 500 µM in drinking water) is recorded as approximately 0.15 nmol/gr fresh tissue. In addition, in data set [3] (i.v. injection of 100 nmol radiolabelled compound in (WT) mice, scintillation counting), the “initial peak concentration in brain tissue” value is “about 0.05 nmol/gr”. In addition, the “Area Under Curve in brain” value in data set [3] (i.v., wild-type mice) is reported as 0.6 nmol·h/g wet weight.
On to HN-IGRKKRRQRRRPPQG-OH, for which the cleaved bond result in data set [4] is “hydrolysis of the carbamate bond connecting the peptide and PAPTPL”.

The record behind these values is PMC7914648 (Pharmaceuticals, 2021).
